Assays:
[1] = test system: dermal papilla (DP) cells; test: In vitro cytotoxic MTT assay against DP cells; type: cell-based, human; settings: 0.5–50 µM, 24 h
Procedure: The cytotoxicity of caffeic acid and its amide derivatives were evaluated with two cell lines, human keratinocyte (HaCaT) and DP cells, using the common cell viability assay with MTT. HaCaT and DP cells were seeded at 1 × 10^4 cell/well in 96-well plates in a complete DMEM medium, incubated overnight, and treated with test compounds at 0–50 µM for 24 h. The stock solutions of all the test compounds were prepared in DMSO. Each compound was serially diluted in DMEM to achieve concentrations at 0.5–50 µM; DMEM was used as the negative control. After 24 h of treatment, the culture medium was removed, and cell viability was determined by adding 100 µL of 0.5 mg/mL MTT at 37 °C in darkness for 3 h. After removing the MTT solution, 100 µL of DMSO was added to each well to dissolve the purple formazan crystals. The absorbance was measured at 570 nm using a microplate reader, and the IC50 value was calculated. Each experiment was performed in triplicates.

[2] = test system: SRD5A1 protein expression; test: Western blot of SRD5A1 protein expression in HaCaT cells; type: cell-based, human
Procedure: HaCaT cells (1 × 10^5 cells/well in 6-well plates) were cultured in DMEM with or without compound 4 (0–2.5 µM) for 12 and 24 h. The cells were lysed with RIPA buffer containing 1% protease inhibitor and 1% phosphatase inhibitor on ice for 45 min. Then, the total protein from each sample was determined by bicinchoninic acid (BCA) protein assay kit (Cat No. 23225, Thermo Fisher Scientific, Rockford, IL, USA). The equal amount (40 µg) of protein sample was mixed with loading buffer and heated at 95 °C for 5 min before loaded to 10% sodium dodecyl sulfate–polyacrylamide gels (SDS-PAGE). The proteins were transferred onto PVDF membrane, which was further blocked with 5% BSA in TBST (25 mmol/L Tris–HCl; pH 7.4, 125 mmol/L NaCl, 0.1% Tween 20) at room temperature for 1 h. The primary antibody specific to SRD5A1 (1TFS-AB-PA575919, Thermo Fisher Scientific, Rockford, IL, USA) in dilution 1:1000 was added onto the membrane and incubated overnight at 4 °C. Then the membrane was washed 3 times × 7 min with TBST following with the immersion in the specific secondary antibody conjugated with horseradish peroxidase (HRP) for 1 h at room temperature. The signal of target protein was determined by using chemiluminescence HRP substrate (Thermo Scientific, Rockford, IL, USA) and the intensity of target protein was analyzed by analyst/PC densitometric software (Bio-Rad, Hercules, CA, USA).

[3] = Cell viability (MTT) run in parallel with the HaCaT-based SRD5A1 inhibitory assay; parameters: species or system human; settings: human, HaCaT cells, HaCaT, 24 h
[4] = test system: HaCaT cells; test: as above; parameters: species or system human; settings: HaCaT
[5] = test system: SRD5A1 mRNA; test: SRD5A1 mRNA level by RT-qPCR in HaCaT cells; type: cell-based, human; settings: 0.5, 1 and 2.5 µM; 12 h and 24 h
Procedure: HaCaT cells (2 × 10^5 cells/well in 6 well-plates) were treated with compound 4 (0, 0.5, 1 and 2.5 µM) for 12 and 24 h. Then, total RNA was extracted by using Purelink RNA mini purification kit. The isolated RNA was purified by DNase I and further used as a template for synthesis of cDNA using RevertAid First Stand cDNA Synthesis Kit. Quantitative real-time PCR (RT-qPCR) was performed with a C100 Thermal Cycler (Bio-Rad CFX384 real-time pcr system) using Luna Universal qPCR Master Mix (M3003). Specific forward and reverse primers of the interested gene was indicated as following.
The reactions were incubated for 39 cycles of 95 °C for 5 s, 60 °C for 30 s and 65 °C for 5 s. The expression of target mRNA was determined as the relative comparison via the ΔCt method. The threshold (Ct) of target genes were normalized with GAPDH (Ct) values.

[6] = target: T1, steroid 5α-reductase type 1 (SRD5A1) (Homo sapiens, UniProt P18405); test: HaCaT cell-based SRD5A1 inhibitory assay with direct DHT detection by HPTLC
T1 construct: HaCaTs-produced SRD5A1 smoothly converted testosterone to DHT; endogenous in cells; host or cells: HaCaT human keratinocytes
T1 sequence (P18405 1-259): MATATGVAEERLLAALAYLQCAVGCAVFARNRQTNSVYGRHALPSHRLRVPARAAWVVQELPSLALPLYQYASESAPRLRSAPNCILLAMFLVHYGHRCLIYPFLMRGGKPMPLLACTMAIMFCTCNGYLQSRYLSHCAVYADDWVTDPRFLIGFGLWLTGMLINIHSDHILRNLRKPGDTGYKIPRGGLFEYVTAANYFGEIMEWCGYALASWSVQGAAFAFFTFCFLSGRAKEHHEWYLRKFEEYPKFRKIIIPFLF

O=C(C=Cc1ccc(O)c(O)c1)Nc1cc(C(F)(F)F)cc(C(F)(F)F)c1 [Compound 4, 3-(3,4-dihydroxyphenyl)-N-[3,5-bis (trifluoromethyl)phenyl]-2-propenamide]
Toxicity against DP cells [1]: no toxicity
Suppression of SRD5A1 protein expression relative to untreated control ([2]; 2.5 µM, 24 h): > 50%
SRD5A1 protein expression relative to control ([2]; 1 and 2.5 µM, 24 h): significant decrease
SRD5A1 protein level relative to control ([2]; 12 h): no significant changes
viability at 24 h, 1 µM ([3]; compound 1.0 µM, read-out: % Cell viability ± SD): 88%
viability at 24 h, 5 µM ([3]; compound 5 µM, read-out: Viability of treated cells): < 80%
Cytotoxicity between control and treatment groups ([4]; 0.2, 0.5, 1 and 2.5 µM): no significant cytotoxicity
% Cell viability ± SD ([4]; compound 1.0 µM, 24 h, 1 µM): 87.85 ± 1.13%
Effect on mRNA expression of SRD5A1 [5]: did not affect
Concentration dependence of inhibition of DHT production ([6]; 0.2–2.5 µM, HaCaT): concentration-dependent inhibition
IC50 ([6]; HaCaT cells, 10 µM testosterone, 24 h, read-out: IC50 of inhibition of DHT production (SRD5A1 activity)): 1.44 ± 0.13 µM
inhibition at 2.5 µM ([6]; HaCaT, 2.5 µM, 12 h, read-out: Inhibition of SRD5A1 enzyme activity): ~50%
inhibition at 1 µM ([6]; HaCaT, compound 1.0 µM, HaCaT, 24 h, read-out: % Inhibition of DHT production ± SD): 46%
Potency of DHT inhibition relative to avicequinone C ([6]; IC50 1.44 vs 4.45 µM): 3 times
% Inhibition of DHT production ± SD ([6]; compound 1.0 µM, HaCaT, 24 h, 1 µM): 45.67 ± 3.57%

— publication PMC9718795, “Caffeic acid N-[3,5-bis(trifluoromethyl)phenyl] amide as a non-steroidal inhibitor for steroid 5α-reductase type 1 using a human keratinocyte cell-based assay and molecular dynamics” (Scientific Reports, 2022)
